The source of these data is patent publication US20150196668A1, “NANOMEDICINES FOR EARLY NERVE REPAIR” (Purdue Research Foundation, priority 2011, published 2015).

In assay [1] the test system is PC12 cell. The assay is described as follows: H2O2-induced PC12 cell injury model, apoptosis (Example 1). It is filed as cell-based.
The test system of assay [2] is primary neuron and glia cells. Put plainly: LDH release from glutamate challenged primary neuron and glia cells. It counts as cell-based. The protocol:
FIGS. 36A-B show rescue of glutamate challenged primary neuron and glia cells as measured by LDH release. Studies with glutamate challenged primary neuron and glial cells show efficacy of GC-MP/MP and GCMP at high concentrations and GC-MP/MP at low concentrations (FIG. 36A). MPHS is beneficial at lower concentrations. LDH release from glutamate challenged (100 umol) primary neuron and glial cells treated with GC, GC-MP, GC-MP/MP (all 1 mg/ml) and MPHS (250 ug/ml) (FIG. 36B).
For orientation: Release of lactate dehydrogenase indicates damage to the cell membrane.

`COc1cc(/C=C/C(=O)CC(=O)/C=C/c2ccc(O)c(OC)c2)ccc1O` [curcumin]: in assay [1], the reducing cell apoptosis entry is “effective in reducing cell apoptosis”.
In the case of `C[C@H]1C[C@@H]2[C@H]([C@@H](O)C[C@@]3(C)[C@H]2CC[C@]3(O)C(=O)COC(=O)CCC(=O)O)[C@@]2(C)C=CC(=O)C=C12` [MPHS, methylprednisolone hemisuccinate], in assay [2] (16 hours, GC, GC-MP, GC-MP/MP 1 mg/ml, MPHS 250 ug/ml, glutamate 100 umol), the “rescue of glutamate challenged cells, LDH release” value is “not significant”. The “rescue of glutamate challenged cells at low concentrations” value in assay [2] (FIG. 36A) is on record as “beneficial”.
